In brackets after ≈: the same amount, converted by molar mass.
How the values were obtained:
Type in all cases: functional
Staphylococcus aureus [1] = experiment: Minimum inhibitory concentration against Staphylococcus aureus RN4220
Streptococcus pyogenes = experiment: Minimum inhibitory concentration against Streptococcus pyogenes Dig 7
Staphylococcus aureus [2] = experiment: Minimum inhibitory concentration against Staphylococcus aureus AS5155

Work on `CCn1cc(C(=O)O)c(=O)c2cc(F)c(N3CCN(C)CC3)cc21` [PEFLOXACIN] yielded an MIC (Staphylococcus aureus [1]) of 0.5 µg/mL (≈ 1.5 µM), an MIC (Streptococcus pyogenes) of 8 µg/mL (≈ 24 µM) and an MIC (Staphylococcus aureus [2]) of 64 µg/mL (≈ 192 µM).

`Cc1ccc(N2CCN(c3ccc4c(ncc5c4c(=O)c(C(=O)O)cn5C)c3F)CC2)cc1F` was tested, and the MIC (Staphylococcus aureus [1]) was 4 µg/mL (≈ 8.61 µM), the MIC (Streptococcus pyogenes) was 16 µg/mL (≈ 34.4 µM) and the MIC (Staphylococcus aureus [2]) was 2 µg/mL (≈ 4.31 µM).

`Cc1ccc(N2CCN(c3cc4c(ncc5c4c(=O)c(C(=O)O)cn5C)c(F)c3Cl)CC2)cc1F` gave an MIC (Staphylococcus aureus [1]) of 1 µg/mL (≈ 2 µM), an MIC (Streptococcus pyogenes) of 2 µg/mL (≈ 4.01 µM) and an MIC (Staphylococcus aureus [2]) of 1 µg/mL (≈ 2 µM).

Compound `Cn1cc(C(=O)O)c(=O)c2c3cc(N4C[C@@]5(C)C[C@@H]4CC(C)(C)C5)c(F)cc3ncc21` has an MIC (Staphylococcus aureus [1]) of 2 µg/mL (≈ 4.72 µM), an MIC (Streptococcus pyogenes) of 4 µg/mL (≈ 9.45 µM) and an MIC (Staphylococcus aureus [2]) of 2 µg/mL (≈ 4.72 µM).

With `Cn1cc(C(=O)O)c(=O)c2c3ccc(F)c(N4CCN(c5cccc(C(F)(F)F)c5)CC4)c3ncc21` the MIC (Staphylococcus aureus [1]) was 2 µg/mL (≈ 4 µM), the MIC (Streptococcus pyogenes) was 16 µg/mL (≈ 32 µM) and the MIC (Staphylococcus aureus [2]) was 4 µg/mL (≈ 7.99 µM).

In the case of `Cn1cc(C(=O)O)c(=O)c2c3cc(N4CCN(c5ccc(Cl)c(F)c5)CC4)c(Cl)c(F)c3ncc21`, the MIC (Staphylococcus aureus [1]) is reported as 2 µg/mL (≈ 3.85 µM), the MIC (Streptococcus pyogenes) is reported as 16 µg/mL (≈ 30.8 µM) and the MIC (Staphylococcus aureus [2]) is reported as 1 µg/mL (≈ 1.93 µM).

`C[N+](C)(C)CCO.Cn1cc(C(=O)[O-])c(=O)c2cc3cc(F)c(N4CCN(c5ccc(F)cc5)CC4)cc3nc21` showed an MIC (Staphylococcus aureus [1]) of 0.25 µg/mL, an MIC (Streptococcus pyogenes) of 0.5 µg/mL and an MIC (Staphylococcus aureus [2]) of 2 µg/mL.

With `Cn1cc(C(=O)O)c(=O)c2c3cc(F)c(N4CCCC(C)(C)C4)cc3ncc21` the MIC (Staphylococcus aureus [1]) was 4 µg/mL (≈ 10.4 µM), the MIC (Streptococcus pyogenes) was 4 µg/mL (≈ 10.4 µM) and the MIC (Staphylococcus aureus [2]) was 4 µg/mL (≈ 10.4 µM).

With `C/C(=C\C(=O)OCCCCCCCCC(=O)O)C[C@@H]1OC[C@H](C[C@@H]2O[C@H]2[C@@H](C)[C@H](C)O)[C@@H](O)[C@H]1O` [MUPIROCIN] the MIC (Staphylococcus aureus [1]) was 0.5 µg/mL (≈ 0.999 µM), the MIC (Streptococcus pyogenes) was 0.12 µg/mL (≈ 0.24 µM) and the MIC (Staphylococcus aureus [2]) was 1 µg/mL (≈ 2 µM).

— ChEMBL document CHEMBL1144972, “Benzo[f]naphtyridones: a new family of topical antibacterial agents active on multi-resistant Gram-positive pathogens” (2003)
